According to ChEMBL document CHEMBL1268970, “Development of novel inhibitors targeting HIF-1α towards anticancer drug discovery” (Bioorg Med Chem Lett, 2010):
Activity calls are given as the source filed them. No cut-off for these calls is given here.

Tests used:
[1] = target: T1, Hypoxia-inducible factor 1-alpha (Homo sapiens, UniProt Q16665); experiment: Inhibition of HIF1alpha in human U251 cells under hypoxic condition by luciferase reporter gene assay; assay type: cell-based, U-251
Target sequence in this assay (Q16665 whole entry): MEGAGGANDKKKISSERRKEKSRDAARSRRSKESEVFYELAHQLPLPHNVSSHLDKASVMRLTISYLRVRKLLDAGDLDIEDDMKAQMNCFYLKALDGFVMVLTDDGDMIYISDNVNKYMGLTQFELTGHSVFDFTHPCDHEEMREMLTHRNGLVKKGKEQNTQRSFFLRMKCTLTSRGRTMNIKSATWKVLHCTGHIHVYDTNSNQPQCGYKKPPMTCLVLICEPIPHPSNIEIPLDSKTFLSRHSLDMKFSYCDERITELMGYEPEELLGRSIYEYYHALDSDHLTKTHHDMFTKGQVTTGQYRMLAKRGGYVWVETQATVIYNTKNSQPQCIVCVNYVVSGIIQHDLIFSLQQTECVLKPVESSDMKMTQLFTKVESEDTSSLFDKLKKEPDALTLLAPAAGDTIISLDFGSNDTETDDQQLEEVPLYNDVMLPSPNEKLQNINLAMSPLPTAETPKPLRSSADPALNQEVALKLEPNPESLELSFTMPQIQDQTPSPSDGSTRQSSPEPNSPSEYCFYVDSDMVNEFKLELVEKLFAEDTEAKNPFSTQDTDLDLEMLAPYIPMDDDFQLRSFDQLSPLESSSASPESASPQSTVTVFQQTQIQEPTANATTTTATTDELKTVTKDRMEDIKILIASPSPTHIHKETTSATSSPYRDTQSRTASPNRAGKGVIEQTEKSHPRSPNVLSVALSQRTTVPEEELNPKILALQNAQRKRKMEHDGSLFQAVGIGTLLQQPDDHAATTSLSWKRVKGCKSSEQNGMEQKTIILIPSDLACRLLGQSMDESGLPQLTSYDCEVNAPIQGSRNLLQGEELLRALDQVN

[2] = target: T1, Hypoxia-inducible factor 1-alpha; experiment: Inhibition of HIF1alpha in human U251 cells under normoxic condition by luciferase reporter gene assay; assay type: cell-based, U-251
Target sequence in this assay (Q16665 whole entry): as above

DU-145 = experiment: Antiproliferative activity against human DU145 cells by [3H]thymidine incorporation assay; assay type: functional, cell-based
PC-3 [3] = experiment: Antiproliferative activity against human PC3 cells by [3H]thymidine incorporation assay; assay type: functional, cell-based
U-251 [4] = experiment: Antiproliferative activity against human U251 cells by [3H]thymidine incorporation assay; assay type: functional, cell-based
[5] = Antiproliferative activity against human WI38 cells by [3H]thymidine incorporation assay; assay type: cell-based; conditions: WI-38
PANC-1 = experiment: Antiproliferative activity against human PANC1 cells by [3H]thymidine incorporation assay; assay type: functional, cell-based
U-251 [6] = experiment: Inhibition of HIF1alpha expression in human U251 cells by Western blot analysis; assay type: functional, cell-based
HCT-116 = experiment: Antiproliferative activity against human HCT116 cells by [3H]thymidine incorporation assay; assay type: functional, cell-based
Mus musculus = experiment: Toxicity in SCID mouse xenografted with human PC3 cells assessed as weight loss at 50 mg/kg, po BID for 19 days measured on day 25; assay type: organism-based, PC-3; parameters: dose 50 mg/kg, route oral; conditions: in vivo, 456 h
PC-3 [7] = experiment: Inhibition of HIF1alpha expression in human PC3 cells by Western blot analysis; assay type: functional, cell-based
PC-3 [8] = experiment: Antitumor activity against human PC3 cells xenografted in SCID mouse assessed as tumor growth inhibition at 50 mg/kg, po BID for 19 days measured on day 20; assay type: functional, organism-based; parameters: dose 50 mg/kg
HUVEC = experiment: Antiangiogenic activity in HUVEC assessed as inhibition of tube formation; assay type: functional, cell-based; conditions: Homo sapiens
OVCAR-3 = experiment: Antiproliferative activity against human OVCAR-3 cells by [3H]thymidine incorporation assay; assay type: functional, cell-based; conditions: OVCAR-3, 3 h
[9] = target: T1, Hypoxia-inducible factor 1-alpha; experiment: Inhibition of HIF1-alpha-mediated VEGF mRNA expression in human PC3 cells under hypoxic condition by RT-PCR analysis; assay type: cell-based; conditions: PC-3
Target sequence in this assay (Q16665 whole entry, looked up): as the sequence (Q16665 whole entry) above

MRC5 = experiment: Antiproliferative activity against human MRC5 cells by [3H]thymidine incorporation assay; assay type: cell-based

Row | Compound | IC50 [1] [µM] | IC50 [2] [µM] | also measured
1 | C=CCOc1cc(C(F)(F)F)nc(-c2ccc(NC(=O)CCl)cn2)n1 | 2 | 30 | –
2 | C=CCOc1nc(-c2ccc(N)cn2)nc(C)c1Cl | > 30 | – | –
3 | Nc1ccc(-c2nc(O)cc(C(F)(F)F)n2)nc1 | > 30 | – | –
4 | Cc1nc(-c2ccc(N)cn2)nc(O)c1F | > 30 | – | –
5 | O=C(CCl)Nc1ccc(-c2nc(Cl)cc(C(F)(F)F)n2)nc1 | 1.4 | 10 | –
6 | CC[C@@]1(O)C(=O)OCc2c1cc1n(c2=O)Cc2cc3c(CN(C)C)c(O)ccc3nc2-1 [TOPOTECAN] | – | – | IC50 (DU-145): 1.2 µM; IC50 (PC-3 [3]): 1 µM; IC50 (U-251 [4]): 0.5 µM
7 | O=C(Nc1ccc(-c2nc(O)cc(C(F)(F)F)n2)nc1)C(F)(F)Cl | > 30 | – | –
8 | C=CCOc1cc(C(F)(F)F)nc(-c2ccc(N)cn2)n1 | > 30 | – | –
9 | C=CCOc1nc(-c2ccc(NC(=O)CCl)cn2)nc(C)c1Cl | 1.5 | 8 | –
10 | COc1cc(C(F)(F)F)nc(-c2ccc(NC(=O)CCl)cn2)n1 | 3.5 | 15 | –
11 | COc1cc(C(F)(F)F)nc(-c2ccc(N)cn2)n1 | > 30 | – | –
12 | CCOc1cc(C(F)(F)F)nc(-c2ccc(N)cn2)n1 | > 30 | – | –
13 | O=C(CCl)Nc1ccc(-c2nc(O)cc(C(F)(F)F)n2)nc1 | 0.8 | 8 | IC50 [5]: 6.5 µM; IC50 (PANC-1): 2 µM; IC50 (DU-145): 1.2 µM; inhibition (U-251 [6]): Dose-dependent effect; IC50 (HCT-116): 0.8 µM; Activity (Mus musculus): Non-toxic; inhibition (PC-3 [7]): Dose-dependent effect; growth inhibition (GI) (PC-3 [8]): Active; inhibition (HUVEC): Dose-dependent effect; IC50 (PC-3 [3]): 1 µM; IC50 (OVCAR-3): 3.5 µM; IC50 (U-251 [4]): 1.5 µM; inhibition [9]: Dose-dependent effect; IC50 (MRC5): > 10 µM

Now from value to compound, other results behind:

Row | IC50 [1] [µM] | IC50 [2] [µM] | Compound | also measured
14 | 2 | 6 | Cc1nc(-c2ccc(NC(=O)CCl)cn2)[nH]c(=O)c1F | –
15 | 8 | – | CCOc1cc(C(F)(F)F)nc(-c2ccc(NC(=O)CCl)cn2)n1 | –
16 | 6 | 22 | Nc1ccc(-c2nc(O)cc(CCl)n2)nc1 | –
17 | 5.5 | – | Cc1nc(-c2ccc(NC(=O)CCl)cn2)[nH]c(=O)c1Cl | –
18 | > 30 | – | Cc1nc(-c2ccc(N)cn2)nc(O)c1C | –
19 | 1.5 | 5.5 | CCc1c(C)nc(-c2ccc(NC(=O)CCl)cn2)nc1O | –
20 | > 30 | – | CCc1c(C)nc(-c2ccc(N)cn2)nc1O | –
21 | > 30 | – | Cc1nc(-c2ccc(N)cn2)nc(O)c1Cc1ccccc1 | –
22 | 1.8 | 22 | C=CCOc1nc(-c2ccc(NC(=O)CCl)cn2)nc(C)c1CC | –
23 | > 30 | – | Cc1nc(-c2ccc(N)cn2)nc(O)c1Cl | –
24 | 4 | 10 | Cc1nc(-c2ccc(NC(=O)CCl)cn2)nc(O)c1Cc1ccccc1 | –
25 | > 30 | – | C=CCOc1nc(-c2ccc(N)cn2)nc(C)c1CC | –
26 | > 30 | – | Cc1nc(-c2ccc(NC(=O)CCl)cn2)nc(O)c1C | –
27 | 1.5 | 5.5 | O=C(CCl)Nc1ccc(-c2nc(O)cc(CCl)n2)nc1 | –
